Assay [1] deals with luciferase plasmid. As to the kind of experiment: pDNA transfection efficiency with luciferase plasmid. Type of assay: cell-based. The method, then: FIG. 10 depicts transfection efficiency of (A) L-PEI and L-PolyMet and (B) B-PEI and B-PolyMet at the indicated N/P ratios. Luciferase pDNA concentration was 0.5 μg/well in 96-well plate. Data are mean±S.D. (n=6 per group).
In assay [2] the test system is H460 tumor. Description: H460 xenograft tumor growth / antitumor activity. Type of assay: in vivo, mice. To be noted: vs PBS and LPH-PEI groups; IV 0.4 mg/kg body weight every other day. The method, then: FIG. 6A depicts Metformin and PolyMet inhibit H460 tumor growth. PBS, metformin, LPH-PEI and LPH-PolyMet were administered intravenously every other day, and mice were sacrificed 24 hours after the final injection. In FIG. 6A, tumor volumes were measured every day; FIG. 6B depicts tumor weights were measured on day after final injection and compared with body weights to determine percentage of tumor burden; FIG. 6C depicts visual observations of the H460 tumor sizes in each treatment group at the end time point; (n=5 per group).
Female nude female mice and female CD1 mice that were 6-8 weeks old were used in the studies. Female nude mice were purchased from National Cancer Institute (Bethesda, Md.) and bred by the Division of Laboratory Animal Medicine (DLAM) at University of North Carolina at Chapel Hill. CD1 mice were purchased from Charles River Laboratories (Morrisville, N.C.). To establish the xenograft models, 5×10^6 cells in 100 μL of PBS were injected subcutaneously into the right flank of the mice.
Human NSCLC cells xenografts were used as previously described. H460 human lung cancer cells ([…]) were subcutaneously injected into the right flanks of female athymic nu/nu mice. […] Animal weight and tumor volumes were measured every other day. […]

Assay [3] deals with AMPKα. As to the kind of experiment: Western blot of tumor proteins: AMPKα phosphorylation. The class given is in vivo, mice. To be noted: H460 tumors, IV every other day. The method, then: (§1) FIG. 7A depicts Metformin and PolyMet inhibition of tumor growth by activation of AMPK, inhibiting the mTOR pathway; FIG. 7B depicts inducing autophagy and apoptosis mechanisms. Mice bearing H460 tumors were given IV injections every other day and analysis of tumor proteins was prepared 24 h after the second injection. Cells under autophagy were stained by LC3b antibody (red) and apoptosis of cells was indicated by TUNEL assay (green). Nuclei are stained blue. The percentage denotes the average percentage of LC3b positive cells (red) and the percentage of TUNEL positive cells (green), respectively. Five randomly selected microscopic fields were quantitatively analyzed on ImageJ. Data are mean±S.D. (n=5 per group).
(§2) H460 tumor-bearing mice were given IV injections every second day and mice were sacrificed 24 hours after the third injection. Protein per lane was separated by 4%-12% SDS-PAGE electrophoresis (Invitrogen) before being transferred to polyvinylidene difluoride (PVDF) membranes (Bio-Rad). The membranes were blocked for 1 h with 5% non fat dry milk (Bio-Rad) at room temperature and then incubated with antibodies overnight at 4° C. The membranes were washed 3 times and then incubated with a secondary antibody (1:4,000 dilution; Cell signal Inc.) at room temperature for 1 h. […]

Assay [4] concerns mTOR. Description: Western blot of tumor proteins: p-mTOR/mTOR. Type of assay: in vivo, mice. The settings on record: H460 tumors; compared to the PBS and LPH-PEI. As for the experimental part: as §1, §2
A general note: Immunoblotting shows a protein as a band on a membrane.

For assay [5], the system named is LC3b. Description: LC3b immunostaining of H460 tumors (autophagy). To be noted: vs other groups. Type of assay: in vivo, mice. As for the experimental part:
as §1

Assay [6] concerns H460 tumor cells. Description: TUNEL assay of in vivo tumor cell apoptosis. More on the design: species or system mice. To be noted: H460 tumors after IV treatment. As for the experimental part: as §1
FIG. 8 depicts in vitro and in vivo gene silencing effect of different LPH nanoparticles. […] Luciferase activities of cells were analyzed and normalized by protein. *p<0.05, **p<0.01, ***p<0.001. […] H460 tumor-bearing mice were injected intravenously every other day; FIG. 8B depicts tumor BCL2 protein levels after 2 injections were measured by western blot analysis; FIG. 8C depicts tumor volumes were measured every day; FIG. 8D depicts TUNEL staining in H460 tumor cells after treatment with siRNA in different formulations in vivo. […] Five randomly selected microscopic fields were quantitatively analyzed on ImageJ. […]

In the case of protamine, the “transfection efficiency” value in assay [1] was “did not help”.
For `CN(C)C(=N)NC(=N)N` [Metformin, N,N-dimethylimidodicarbonimidic diamide], in assay [2], the “inhibition of cancer progression (tumor growth)” value was “significant inhibition”. Besides, the “phosphorylation level of AMPKα relative to PBS group” value in assay [3] is given as “about 9 fold”. Besides, the “reduction in p-mTOR/mTOR levels” value in assay [4] was determined as 2.3 fold. For the same compound, the “LC3b-associated red fluorescence (autophagy)” value in assay [5] was “higher”. Besides, the “percent of apoptotic (TUNEL-positive) cells” value in assay [6] is listed as 18.8%.

(Values after patent US10426745B2, “Polymeric metformin and its use as a therapeutic agent and as a delivery vehicle” (The University of North Carolina at Chapel Hill, priority 2015, dated 2019).)
